Literature values as cited in article PMC7464078, “CYP3A Excipient-Based Microemulsion Prolongs the Effect of Magnolol on Ischemia Stroke Rats” (Pharmaceutics, 2020).
Read-outs that look alike come from different tables or passages of the source.

Assays:
[1] = design: method as in PMID 21638244
CYP3A = tested on: CYP3A; design: method as in PMID 14716751, PMID 11137342; details: hepatocytes and liver microsomes

## C=CCc1ccc(O)c(-c2cc(CC=C)ccc2O)c1 [Magnolol, 5,5′-diallyi-2,2′-dihydroxybiphenyl]
Human CYP3A4; in vitro
  Inhibition of human CYP3A4: weak inhibitors
Rat CYP1A2; in vitro
  Inhibition of rat CYP1A2: relatively strong inhibitors
Rat CYP2E1; in vitro
  Inhibition of rat CYP2E1: relatively strong inhibitors
At 25 °C
  Water solubility: 1.24 µg/mL
Ref Item No. 14233, Cyman Chemical
  Solubility in dimethyl sulfoxide: approximately 16 mg/mL
Rat CYP3A; in vitro
  Inhibition of rat CYP3A: weak inhibitors
[1]
  Bioavailability: 4%

## C=CCc1ccc(O)c(-c2ccc(O)c(CC=C)c2)c1 [honokiol]
Human CYP3A4
  Inhibition of human CYP3A4: weak inhibitors
Rat CYP1A2
  Inhibition of rat CYP1A2: relatively strong inhibitors
Rat CYP2E1
  Inhibition of rat CYP2E1: relatively strong inhibitors
Rat CYP3A
  Inhibition of rat CYP3A: weak inhibitors

## Tween-80
CYP3A
  Effect on CYP3A activity: inhibited
